Data: patent publication US20230348369A1 (Cytokinetics, Inc., priority 2020, published 2023)
Where two headings read alike, the source gives them in different places.

Biological target: human NAMPT (Homo sapiens, UniProt P43490)
Test: Human recombinant enzyme assay (NMN fluorescence biochemical assay, activation of NAMPT)
Description: Compounds described herein were assayed for their ability to stimulate the synthesis of nicotinamide mononucleotide (NMN) by the enzyme NAMPT. The human recombinant enzyme assay measures the activation of the enzyme activity by compounds using recombinant enzyme and substrates in a buffered cell-free system. The assay conditions closely mimic cellular environments. Dose responses were measured using an assay to detect the formation of nicotinamide mono-nucleotide. All experiments were performed in the 384-well format. […] Enzyme reactions were initiated with the addition of 10 μL of a solution containing the substrates. The final assay conditions were as follows: 6 nM human NAMPT, 2.5 mM ATP, 20 μM PRPP and 150 μM nicotinamide in 50 mM HEPES, pH 7.2, 1 mM DTT, 1 mM CHAPS 50 mM NaCl, 100 mM MgCl2. Following an incubation of 60 min at ambient temperature, 10 μL of 20% acetophenone in DMSO was added, followed by 10 μL of 2 M KOH and 40 μL of formic acid. The plates were read for fluorescence (Excitation/Emission=355 nm/460 nm) using an EnVision plate reader after 40 mins of incubation at ambient temperature.

[1] = Table A, human recombinant NAMPT, NMN formation, 60 min, read-out: EC50 Human
[2] = Table A, human recombinant NAMPT, NMN formation, 60 min

Chain of human NAMPT (P43490 whole entry): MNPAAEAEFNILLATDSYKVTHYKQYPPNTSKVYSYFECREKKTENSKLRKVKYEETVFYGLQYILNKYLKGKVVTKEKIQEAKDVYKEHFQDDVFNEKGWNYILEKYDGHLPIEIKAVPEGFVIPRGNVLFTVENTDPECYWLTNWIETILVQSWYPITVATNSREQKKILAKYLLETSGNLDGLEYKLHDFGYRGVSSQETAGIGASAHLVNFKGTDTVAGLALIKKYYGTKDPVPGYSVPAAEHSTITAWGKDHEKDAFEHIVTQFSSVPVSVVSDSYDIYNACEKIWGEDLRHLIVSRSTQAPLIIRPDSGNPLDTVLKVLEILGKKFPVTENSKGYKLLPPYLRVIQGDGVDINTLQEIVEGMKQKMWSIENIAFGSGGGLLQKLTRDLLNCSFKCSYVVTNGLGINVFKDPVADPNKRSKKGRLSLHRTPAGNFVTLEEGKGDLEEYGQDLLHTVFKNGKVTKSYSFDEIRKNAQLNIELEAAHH

Row | SMILES | EC50 [1] [µM] | EC50 [µM] | AC1.4 Human [2] [µM]
1 | CC(C)(C)OC(=O)NC1CC2(CC(NC(=O)NCc3ccc(Cl)cc3)C2)C1 (racemic) [Compound 8] | 5.1 |  | 
2 | CC(C)(O)CN1CCN(C(=O)[C@H]2C[C@]3(C[C@H](NC(=O)NCc4ccc(Cl)cc4)C3)C2)CC1 (single isomer, unassigned) [Compound 182] |  | 20.5 | 
3 | COC(=O)[C@H]1C[C@@]2(C[C@H](NC(=O)NCc3ccc(Cl)cc3)C2)C1 (single isomer, unassigned) [Compound 201, methyl 6-(3-(4-chlorobenzyl)ureido)spiro[3.3]heptane-2-carboxylate] |  | 22.2 | 6.7
4 | COc1ccc(CNC(=O)NC2CC3(C2)CC(C(=O)NC2CCCc4ccc(F)cc42)C3)cc1 (stereo in doubt) [Compound 97, (S)-N-(7-fluoro-1,2,3,4-tetrahydronaphthalen-1-yl)-6-(3-(4-methoxybenzyl)ureido)spiro[3.3]heptane-2-carboxamide] | 2.7 |  | 1.3
5 | COc1ccc(CNC(=O)NC2CC3(C2)CC(C(=O)NC2CCCc4cc(F)ccc42)C3)cc1 (stereo in doubt) [Compound 98, (S)-N-(6-fluoro-1,2,3,4-tetrahydronaphthalen-1-yl)-6-(3-(4-methoxybenzyl)ureido)spiro[3.3]heptane-2-carboxamide] | 7 |  | 3.0
6 | COc1ccc(CNC(=O)NC2CC3(C2)CC(C(=O)NC2CCCc4ccc(F)cc42)C3)cc1 (stereo in doubt) [Compound 99, (R)-N-(7-fluoro-1,2,3,4-tetrahydronaphthalen-1-yl)-6-(3-(4-methoxybenzyl)ureido)spiro[3.3]heptane-2-carboxamide] | 3.9 |  | 5.1
7 | COc1ccc(CNC(=O)NC2CC3(C2)CC(C(=O)NC2CCCc4ccccc42)C3)cc1 (stereo in doubt) [Compound 100, (R)-6-(3-(4-methoxybenzyl)ureido)-N-(1,2,3,4-tetrahydronaphthalen-1-yl)spiro[3.3]heptane-2-carboxamide] | 10.3 |  | 8.5
8 | O=C(NCCCCC1CCN(C(=O)c2ccccc2)CC1)NCc1ccncc1 [Compound 1, 1-(4-(1-benzoylpiperidin-4-yl)butyl)-3-(pyridin-4-ylmethyl)urea] | 0.8 |  | 0.1
9 | CC(C)(C)OC(=O)NC1CC2(CC(NC(=O)NCc3ccc(C(N)=O)cc3)C2)C1 (centres unmarked) [Compound 2, tert-butyl (6-(3-(4-carbamoylbenzyl)ureido)spiro[3.3]heptan-2-yl)carbamate] | 25.9 |  | 
10 | CC1(C)CCC(NC(=O)NCc2ccc(C(N)=O)cc2)CC1 [Compound 3, 4-((3-(4,4-dimethylcyclohexyl)ureido)methyl)benzamide] | 41.4 |  | 17.5
11 | NC(=O)c1ccc(CNC(=O)NC2CC(c3ccccc3)C2)cc1 (centres unmarked) [Compound 4, 4-((3-(3-phenylcyclobutyl)ureido)methyl)benzamide] |  |  | 9.9
12 | CC(C)(C)OC(=O)N1CCC(NC(=O)NCc2ccc(C(N)=O)cc2)CC1 [Compound 5, tert-butyl 4-(3-(4-carbamoylbenzyl)ureido)piperidine-1-carboxylate] | 48.6 |  | 
13 | CC(C)(C)OC(=O)NC1CC2(CC(NC(=O)NCc3ccncc3)C2)C1 (centres unmarked) [Compound 6, tert-butyl (6-(3-(pyridin-4-ylmethyl)ureido)spiro[3.3]heptan-2-yl)carbamate] | 26.8 |  | 4.5
14 | CC(C)(C)OC(=O)NC1CC2(CC(NC(=O)NCc3ccc(CO)cc3)C2)C1 (centres unmarked) [Compound 9, tert-butyl (6-(3-(4-(hydroxymethyl)benzyl)ureido)spiro[3.3]heptan-2-yl)carbamate] | 47 |  | 3.4
15 | CC(C)(C)OC(=O)NC1CC2(CC(NC(=O)NCc3cn[nH]c3)C2)C1 (centres unmarked) [Compound 10, tert-butyl (6-(3-((1H-pyrazol-4-yl)methyl)ureido)spiro[3.3]heptan-2-yl)carbamate] | 50.7 |  | 5.8
16 | CC(C)(C)OC(=O)NC1CC2(CC(NC(=O)NCc3cnco3)C2)C1 (centres unmarked) [Compound 11, tert-butyl (6-(3-(oxazol-5-ylmethyl)ureido)spiro[3.3]heptan-2-yl)carbamate] |  |  | 11.5
17 | CC(C)(C)OC(=O)NC1CCC(NC(=O)NCc2ccc(C(N)=O)cc2)CC1 (centres unmarked) [Compound 12, tert-butyl (4-(3-(4-carbamoylbenzyl)ureido)cyclohexyl)carbamate] | 40 |  | 
18 | NC(=O)c1ccc(CNC(=O)NC2CCN(C(=O)c3ccccc3)CC2)cc1 [Compound 13, 4-((3-(1-benzoylpiperidin-4-yl)ureido)methyl)benzamide] |  |  | 17.5

Row | SMILES | EC50 [1] [µM] | EC50 [µM] | AC1.4 Human [2] [µM]
19 | O=C(NCc1ccncc1)NC1CC2(C1)CC(NC(=O)c1ccccc1)C2 (centres unmarked) [Compound 15, N-(6-(3-(pyridin-4-ylmethyl)ureido)spiro[3.3]heptan-2-yl)benzamide] | 17.7 |  | 10.4
20 | O=C(NCc1cn[nH]c1)NC1CC2(C1)CC(NC(=O)c1ccccc1)C2 (centres unmarked) [Compound 17, N-(6-(3-((1H-pyrazol-4-yl)methyl)ureido)spiro[3.3]heptan-2-yl)benzamide] | 50.5 |  | 17.6
21 | COc1ccc(CNC(=O)NC2CC3(C2)CC(NC(=O)c2ccccc2)C3)cc1 (centres unmarked) [Compound 18, N-(6-(3-(4-methoxybenzyl)ureido)spiro[3.3]heptan-2-yl)benzamide] | 60.2 |  | 18.9
22 | NC(=O)c1ccc(CNC(=O)N[C@H]2C[C@H](C(=O)NCc3ccccc3)C2)cc1 [Compound 21, 4-((3-((1r,3r)-3-(benzylcarbamoyl)cyclobutyl)ureido)methyl)benzamide] | 45 |  | 8.0
23 | NC(=O)c1ccc(CNC(=O)NC2CC3(CC(NCc4ccccc4)C3)C2)cc1 (centres unmarked) [Compound 24] | 29.1 |  | 8.1
24 | CC(C)(C)OC(=O)N1CCC2(CC1)CC2CNC(=O)NCc1ccncc1 (centres unmarked) [Compound 25, tert-butyl 1-((3-(pyridin-4-ylmethyl)ureido)methyl)-6-azaspiro[2.5]octane-6-carboxylate] | 27.4 |  | 5.0
25 | NC(=O)c1ccc(CNC(=O)NC2CC3(C2)CC(Nc2ccccn2)C3)cc1 (centres unmarked) [Compound 26, 4-((3-(6-(pyridin-2-ylamino)spiro[3.3]heptan-2-yl)ureido)methyl)benzamide] |  | 16.7 | 2.0
26 | COc1ccc(CNC(=O)NCC2CC23CCN(C(=O)OC(C)(C)C)CC3)cc1 (centres unmarked) [Compound 28, tert-butyl 1-((3-(4-methoxybenzyl)ureido)methyl)-6-azaspiro[2.5]octane-6-carboxylate] | 42.5 |  | 
27 | CC(C)(C)OC(=O)N1CCC2(CC1)CC2CNC(=O)NCc1cnco1 (centres unmarked) [Compound 30, tert-butyl 1-((3-(oxazol-5-ylmethyl)ureido)methyl)-6-azaspiro[2.5]octane-6-carboxylate] | 37.9 |  | 
28 | CC(C)(C)OC(=O)N1CCC2(CC1)CC2CNC(=O)NCc1cn[nH]c1 (centres unmarked) [Compound 31, tert-butyl 1-((3-((1H-pyrazol-4-yl)methyl)ureido)methyl)-6-azaspiro[2.5]octane-6-carboxylate] | 40.1 |  | 3.2
29 | NC(=O)c1ccc(CNC(=O)NC2CC3(CC(NCc4ccccn4)C3)C2)cc1 (centres unmarked) [Compound 34, 4-((3-(6-((pyridin-2-ylmethyl)amino)spiro[3.3]heptan-2-yl)ureido)methyl)benzamide] | 37.7 |  | 12.1
30 | COC(=O)C1CC2(CC(NC(=O)NCc3ccc(OC)cc3)C2)C1 (centres unmarked) [Compound 35, Methyl 6-(3-(4-methoxybenzyl)ureido)spiro[3.3]heptane-2-carboxylate] | 40.2 |  | 15.4
31 | COc1ccc(CNC(=O)NCCCCCNC(=O)OC(C)(C)C)cc1 [Compound 36, tert-butyl (5-(3-(4-methoxybenzyl)ureido)pentyl)carbamate] | 35.4 |  | 9.8
32 | COc1ccc(CNC(=O)NC2CC3(C2)CN(C(=O)OC(C)(C)C)C3)cc1 [Compound 37, tert-butyl 6-(3-(4-methoxybenzyl)ureido)-2-azaspiro[3.3]heptane-2-carboxylate] | 58.9 |  | 4.2
33 | COc1ccc(CNC(=O)NC2CC3(C2)CN(C(=O)Cc2ccccc2F)C3)cc1 [Compound 38, 1-(2-(2-(2-fluorophenyl)acetyl)-2-azaspiro[3.3]heptan-6-yl)-3-(4-methoxybenzyl)urea] |  | 43.7 | 13.7
34 | COc1ccc(CNC(=O)NC2CC3(C2)CN(C(=O)Cc2ccccc2Cl)C3)cc1 [Compound 39, 1-(2-(2-(2-chlorophenyl)acetyl)-2-azaspiro[3.3]heptan-6-yl)-3-(4-methoxybenzyl)urea] | 41.9 |  | 5.6
35 | COc1ccc(CNC(=O)NC2CC3(C2)CN(C(=O)Cc2ccccc2OC)C3)cc1 [Compound 40, 1-(4-methoxybenzyl)-3-(2-(2-(2-methoxyphenyl)acetyl)-2-azaspiro[3.3]heptan-6-yl)urea] | 24 |  | 17.2
36 | COc1ccc(CNC(=O)NC2CC3(C2)CN(C(=O)Cc2ccccc2C(F)(F)F)C3)cc1 [Compound 41, 1-(4-methoxybenzyl)-3-(2-(2-(2-(trifluoromethyl)phenyl)acetyl)-2-azaspiro[3.3]heptan-6-yl)urea] | 53.5 |  | 5.0
